The text below walks through data of US9011965B2, “Gradient coating for biomedical applications” (Smith & Nephew, Inc., priority 2008, dated 2015).

The series is described as follows: release of bupivacaine from coated samples in PBS, spectrophotometry at 265 nm. Type of series: physicochemical. The conditions noted are these: released from coated samples, 3 mL PBS, 37° C. The procedure:
The release of Ag, Ca, and Bupivacaine from the prepared coating was confirmed by ICP analysis and UV spectrometry, respectively. The coated samples were immersed in 3 mL PBS for 24 and 48 hours at 37° C. At each time point, the release of bupivacaine was measured spectrophotometrically (Nanodrop, Thermo) at 265 nm. The Bupivacaine standard was prepared by dissolving appropriate amounts of the drug in PBS. PBS was used as blank.

In the case of `CCCCN1CCCCC1C(=O)Nc1c(C)cccc1C` (centres unmarked) [Bupivacaine], the “Bupivacaine Concentration in PBS” value (24 hours) was found to be 126 ppm and the “Bupivacaine Concentration in PBS” value (48 hours) is listed as 141 ppm.
